From patent US9040485B2, “Synthetic analogues of neural regeneration peptides” (Curonz Holdings Company Limited, priority 2007, dated 2015)
“Also recorded” adds a separate entry of the source. Where a SMILES comes first, the peptide text is derived from it. [ ]: non-standard residue; d: D form. Aib = CC(C)(N)C(=O)O

How the values were obtained:
[1] = system: rats with peripheral neuropathy induced by pyridoxine; experiment: Pyridoxine-induced peripheral neuropathy, precision beam walk motor deficit score; assay type: in vivo; conditions: for motor deficits (beam walking score) versus vehicle: Experiment I: pyridoxine 800 mg/kg/day 8 days, four days after cessation of pyridoxine
Procedure: Male Sprague-Dawley rats were used and were weighed 278-349 g at the commencement of intoxication with pyridoxine chloride. Before intoxication, rats were habituated to walk across a beam at daily intervals for a week.
Experiment I: Rats were administered 400 mg/kg pyridoxine chloride dissolved in sterile distilled water adjusted to neutral pH intraperitoneally (i.p) twice daily for 8 days and concurrently the peptide having the sequence SEQ ID NO:5 was administered i.p. for at total of 10 days.
Experiment II: Rats were administered a higher dose of pyridoxine (1200 mg/kg/day) over a shorter period of time. Pyridoxine chloride dissolved in sterile distilled water adjusted to neutral pH was administered i.p. to the rats at a dose of 600 mg/kg twice daily for 4 days. Concurrently the peptide having the sequence SEQ ID NO:5 was administered for 4 days. On day 5, rats were tested for motor deficits.
Motor deficits after pyridoxine intoxication and effects of SEQ ID NO:5 were analyzed using a precision beam walk. Seven subsequent foot steps across the 1.5 m long beam were videotaped and according to the positioning of the foot tarsus, these steps were scored between 1 to 4 (1—hind leg tarsus above the beam median; 2—tarsus was touching the upper half of beam medium; 3-tarsus was touching the lower half of beam median and 4—tarsus below the beam median). The score results of all seven steps were added together. A score of 30 was given if the animal was only able to stand on the beam but was unable to walk. In the event of inability to stand on the beam a score of 32 was awarded.
Experiment I: The two concentrations tested for SEQ ID NO:5 were 40 ng/kg/day and 4 μg/kg/day.
Experiment II: Saline and SEQ ID NO:5 at a dose of 4 μg/kg/day were tested.
Motor deficit data were assessed by two-way analysis of variance and Bonferroni post-hoc test. Statistical significance was concluded if p<0.05 between drug treatment cohorts and vehicle treatment.

cerebellar microexplants = experiment: Neuronal survival of cerebellar microexplants exposed to the neurotoxin 3-NP (cells having neurites counted); assay type: cell-based, Wistar rat; conditions: for neuroprotection after exposure to 3-NP, larger set of data: study of 6 in each group, FIG. 4
Procedure: (§1) Laminated cerebellar cortices of the two hemispheres were explanted from a P3, P4, P7 or P8 Wistar rat, cut into small pieces in GBSS with 0.65% D(+)glucose solution, and triturated by a 0.4 mm gauge needle and subsequently pressed through a 125 μm pore size sieve. The obtained microexplants were centrifuged (60×g) 2 times for a medium exchange into serum-free BSA-supplemented START V-medium (Biochrom). Finally, the microexplants were reconstituted in 500 μl STARTV-medium. For culturing, 38 μl of the cell suspension was incubated for 1 hour on a poly-D-lysine-coated cover slip in a 35 mm Petri dish under an atmosphere comprising 5% CO2 in air and 100% humidity at 34° C. Subsequently, the injuring toxins (as described below), NRP analogues and 1 ml of STARTV-medium were added, and the cultures were evaluated after 2-3 days of culture.
(§2) General methods for toxicological and drug administration experiments were designed such that 1/100 parts of toxin and neuroprotective drug were administered simultaneously to the freshly prepared cerebellar microexplants. Glutamate was prepared as a 50 mM stock solution in MilliQ water while 50 mM 3-nitropropionic acid (3-NP) was pH-adjusted (pH 6.8-7.2) in MilliQ water. The concentrations of the oxidative stress inducing toxin, 3-nitropropionic acid (3-NP), and the excitotoxin, glutamate, in the assay were at concentrations of 0.5 mM each. Lyophilized NRP peptides were reconstituted in PBS or 100 μg/ml human transferrin as a 10 μM stock solution. Subsequently, serial dilutions were made. Cerebellar microexplants were cultivated for 48-72 hours at 34° C., 5% CO2 in air and 100% humidity before they were fixed by increasing amounts of paraformaldehyde (0.4%, 1.2%, 3% and 4%—each treatment 2-3 min).
Using the toxins described above, cerebellar explants were exposed for 24 hours, at the beginning of culturing to dilutions of NRP (survival assay) or NRP and 0.1 μM BrdU (proliferation assay). Subsequently, 80% of the medium was changed without addition of new toxins and NRPs. The cerebellar cultures were fixed as described above after 3 days in vitro. The detection of the incorporated BrdU level is performed as described previously.
For statistical analysis of survival, four fields (each field having an area of 0.65 mm^2) of each fixed cerebellar culture with the highest cell densities were chosen, and cells displaying neurite outgrowth were counted (survival assay).
We exposed cell cultures to vehicle alone (open column) the neurotoxin 3-NP alone (shaded column) to 3-NP plus different concentrations of SEQ ID NO:5 (hatched columns) or to 3-NP plus different concentrations of a non-substituted NRP, SEQ ID NO:1 (dark shaded column). We then counted the numbers of cells having neurites as an indicator of neuronal cell survival.

[2] = system: SOD-1 mutant (ALS) transgenic mice; experiment: Survival of SOD-1 mutant (ALS) transgenic mice, Kaplan-Meier; assay type: in vivo
Text: In this series of studies, we examined the effects of SEQ ID NO:5 on mice having a genetic defect (SOD-1) that produces a motor neuron disease similar to that in humans with ALS Animals with this disorder show a progressive loss of motor coordination over time, and ultimately die prematurely of the disease. This animal system is useful in studying effects of agents potentially useful in treating ALS in human beings. Thus, results obtained are highly predictive of results obtained in humans with ALS.
Mice were randomly allocated to receive either vehicle or SEQ ID NO:5 from the point of disease onset onwards.
SEQ ID NO:5 treatment (40 μg/kg, given 1/day, i.p. (FIG. 8A) or 0.4 μg/kg, given 1/day, i.p. (FIG. 8B)) was started at the day of onset of the disease.

cerebellar explants = experiment: Storage stability: peptide stored 9 weeks at −20° C. or −4° C., then tested for neuroprotection against 3-NP in cerebellar explants; assay type: cell-based, Wistar rat; conditions: for stability in storage (retention of neuroprotective activity): 9 weeks, −4° C. compared with −20° C.; for neuroprotective effect against 3-NP after storage at −4° C.: stored 9 weeks at −4° C.; for neuroprotective effect against 3-NP after storage at −4° C. / neuroprotective effect against 3-NP after storage at −20° C.: four concentrations 10^−13 M to 10^−10 M; for neuroprotective effect against 3-NP after storage at −20° C.: stored 9 weeks at −20° C.
Procedure: as §1, §2
To determine the stability of NRPs of this invention in storage, we carried out a series of studies using SEQ ID NO:1. In this study, we synthesized SEQ ID NO:1 and then stored the peptide at temperatures of either −20° C. or −4° C. for nine (9) weeks. We then tested the NRP for efficacy in protecting cerebellar neurons against the neurotoxic effect of 3-NP as described above. Cerebellar explants were treated with vehicle alone (open column), the neurotoxic agent 3-NP alone (light stippled column), or 3-NP plus four concentrations of SEQ ID NO:1 that had been stored for 9 weeks at −20° C., or at −4° C.
In this study, we determined the stability of a substituted NRP, SEQ ID NO:5, in different storage conditions and at different concentrations as with Example 3 above. We synthesized SEQ ID NO:5 and then stored the peptide for 9 weeks at a temperature of either −20° C. or −4° C. We then tested the efficacy of SEQ ID NO:5 in decreasing the neurotoxic effect of 3-NP as described in Examples 2 and 3 above.

[3] = system: mouse model of experimental autoimmune encephalitis (EAE); experiment: MOG-induced experimental autoimmune encephalitis (EAE) model of multiple sclerosis, clinical score of neurological impairment; assay type: in vivo, mice, strain C57B1/6J; conditions: 0.1 μg peptide/animal (4.16 μg/kg) i.p. daily for 14 days from day 17 after MOG-immunization; outcome 37 days after first treatment; p<0.01 versus treatment day 1 score; FIG. 5

C[C@H](NC(=O)[C@H](CCCNC(=N)N)NC(=O)[C@H](CCCNC(=N)N)NC(=O)CN)C(=O)N[C@@H](C)C(=O)N1CCC[C@H]1C(=O)NCC(=O)N[C@@H](CCCNC(=N)N)C(=O)NC(C)(C)C(=O)NCC(=O)NCC(N)=O [SEQ ID NO:5, NH2-G^1RRAAPGR-Aib-GG^11-NH2] (H-GRRAAPGR[Aib]GG-NH2)
motor deficits (beam walking score) versus control group ([1]; Experiment I: peptide 4 μg/kg/day, day 16 after start of pyridoxine-intoxication, p<0.05, FIG. 6): significantly less motor deficits than the control group
motor deficits (beam walking score) versus vehicle ([1]; peptide 40 ng/kg/day i.p. 10 days, p<0.05, FIG. 6): attenuated motor deficits
motor deficits (beam walking score) versus vehicle ([1]; peptide 4 μg/kg/day i.p. 10 days, p<0.01, FIG. 6): attenuated motor deficits
motor deficits (beam walking score) versus control group ([1]; Experiment II: pyridoxine 1200 mg/kg/day 4 days, peptide 4 μg/kg/day 4 days, day 5, p<0.001, FIG. 7): highly significantly attenuation of motor deficits
tolerability ([1]; rats, 4 μg/kg/day): well tolerated
neuroprotection compared with the unsubstituted NRP (cerebellar microexplants; 3-NP, FIGS. 1 and 4): more neuroprotective than the unsubstituted NRP
concentration of maximal effect on 3-NP-induced neurotoxicity (cerebellar microexplants; FIG. 1, n=4): about 100 fM
threshold concentration for decrease of 3-NP-induced neurotoxicity (cerebellar microexplants; FIG. 1, n=4): below 1 fM
decrease of 3-NP-induced neurotoxicity (cells having neurites) (cerebellar microexplants; different concentrations, 0.5 mM 3-NP, p<0.001, n=4 each, FIG. 1): decreased 3-NP-induced neurotoxicity in a concentration dependent fashion
neuroprotection after exposure to 3-NP, larger set of data (cerebellar microexplants): protect neurons from dying
longest survival of treated mice ([2]; Study 1, 40 μg/kg 1/day i.p., vehicle all dead by day 143, FIG. 8A): up to 156 days
day at which treated mice began dying ([2]; Study 1, 40 μg/kg 1/day i.p., vehicle day 120, FIG. 8A, p<0.01): 131 days
longest survival of treated mice ([2]; Study 2, 0.4 μg/kg 1/day i.p., vehicle all dead at day 154, FIG. 8B): up to 189 days
day at which treated mice began to die ([2]; Study 2, 0.4 μg/kg 1/day i.p., vehicle day 120, FIG. 8B): 125 days
lifetime of mice suffering from the ALS-like disorder ([2]; two studies, 40 μg/kg or 0.4 μg/kg 1/day i.p. from disease onset, FIGS. 8A and 8B): significant extension of lifetime
stability in storage (retention of neuroprotective activity) (cerebellar explants): not statistically different; also recorded: stable under storage conditions
neuroprotective effect against 3-NP after storage at −4° C. (cerebellar explants): retained its neuroprotective effect
neuroprotective effect against 3-NP after storage at −20° C. (cerebellar explants): neuroprotective effects similar to those found for SEQ ID NO:1

AcNH-RRAAPGRAGG^11-NH2 (Ac-RRAAPGRAGG-NH2) [SEQ ID NO: 7]
neuroprotection in in vitro model of neural toxicity induced by 3-NP (cerebellar microexplants; 3-NP): neuroprotective

H-GR[dR]AAPGRAGG-NH2 [SEQ ID NO: 8]
neuroprotection in in vitro model of neural toxicity induced by 3-NP (cerebellar microexplants; 3-NP): neuroprotective

NH2-G^1RRAAPGRAGG^11-NH2 (H-GRRAAPGRAGG-NH2; listed as Homo sapiens) [SEQ ID NO:1, un-substituted comparator, reference compound]
decrease of neurotoxic effects of 3-NP (cells having neurites) (cerebellar microexplants; peptide at 10 fM or 1 pM, 0.5 mM 3-NP, p<0.001, n=4, FIG. 1): significantly decreased the neurotoxic effects of 3-NP
neuroprotection after exposure to 3-NP, larger set of data (cerebellar microexplants): protect neurons from dying
stability in storage (retention of neuroprotective activity) (cerebellar explants): loses activity over the 9-week period
neuroprotective effect against 3-NP after storage at −4° C. (cerebellar explants): little decrease in neurotoxic effect of 3-NP
neuroprotective effect against 3-NP after storage at −20° C. (cerebellar explants): neuroprotective effects at all concentrations tested

NH2-G^1RRAAPGRANG^11-NH2 (H-GRRAAPGRANG-NH2) [SEQ ID NO: 6]
neuroprotection in in vitro model of neural toxicity induced by 3-NP (cerebellar microexplants; 3-NP): neuroprotective

NH2—REGRRDAPGRAGG-NH2 (H-REGRRDAPGRAGG-NH2) [SEQ ID NO: 12]
therapeutic effect on EAE clinical score (severity of motoric impairment) [3]: significant therapeutic effect
